Measurements taken from ChEMBL document CHEMBL4507312 (2021).

How the values were obtained:
[1] = target: Sodium-dependent dopamine transporter (Homo sapiens) (UniProt Q01959); conditions: Compound concentration 10.0 uM
[2] = target: T1, Sigma intracellular receptor 2 (Homo sapiens, UniProt Q5BJF2); conditions: Compound concentration 10.0 uM
[3] = target: Muscarinic acetylcholine receptor M4 (Homo sapiens) (UniProt P08173); conditions: Compound concentration 10.0 uM
[4] = target: Beta-2 adrenergic receptor (Homo sapiens) (UniProt P07550); conditions: Compound concentration 10.0 uM
Sequence of Beta-2 adrenergic receptor (Homo sapiens) (P07550 whole entry, looked up): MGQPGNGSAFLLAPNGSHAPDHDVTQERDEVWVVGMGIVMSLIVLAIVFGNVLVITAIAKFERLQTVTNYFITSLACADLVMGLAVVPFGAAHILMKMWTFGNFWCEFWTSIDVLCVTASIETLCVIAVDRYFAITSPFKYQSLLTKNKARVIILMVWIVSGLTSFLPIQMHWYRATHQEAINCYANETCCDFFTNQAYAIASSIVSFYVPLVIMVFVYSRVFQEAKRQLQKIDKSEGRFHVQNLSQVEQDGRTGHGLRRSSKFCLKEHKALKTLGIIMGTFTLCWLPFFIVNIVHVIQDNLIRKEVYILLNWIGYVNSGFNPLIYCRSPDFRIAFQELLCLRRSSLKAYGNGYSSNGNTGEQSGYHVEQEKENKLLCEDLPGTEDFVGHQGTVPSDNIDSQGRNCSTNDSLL

[5] = target: 5-hydroxytryptamine receptor 1A (Homo sapiens) (UniProt P08908); conditions: Compound concentration 10.0 uM
[6] = target: Alpha-1A adrenergic receptor (Homo sapiens) (UniProt P35348); conditions: Compound concentration 10.0 uM
[7] = target: Muscarinic acetylcholine receptor M1 (Homo sapiens) (UniProt P11229); conditions: Compound concentration 10.0 uM
Sequence of Muscarinic acetylcholine receptor M1 (Homo sapiens) (P11229 whole entry): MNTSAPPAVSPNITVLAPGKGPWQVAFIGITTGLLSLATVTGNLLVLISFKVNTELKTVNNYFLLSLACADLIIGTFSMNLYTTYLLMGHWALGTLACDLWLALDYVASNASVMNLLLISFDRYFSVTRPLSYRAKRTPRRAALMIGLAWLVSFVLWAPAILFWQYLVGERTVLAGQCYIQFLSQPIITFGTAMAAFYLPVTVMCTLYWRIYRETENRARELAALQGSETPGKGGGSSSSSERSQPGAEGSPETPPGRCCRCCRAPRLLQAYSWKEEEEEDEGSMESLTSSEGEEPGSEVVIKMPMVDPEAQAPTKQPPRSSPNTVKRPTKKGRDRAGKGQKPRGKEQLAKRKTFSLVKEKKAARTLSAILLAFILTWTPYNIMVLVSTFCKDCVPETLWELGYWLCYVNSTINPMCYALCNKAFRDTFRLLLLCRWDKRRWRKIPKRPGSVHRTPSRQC

[8] = target: Kappa-type opioid receptor (Homo sapiens) (UniProt P41145); conditions: Compound concentration 10.0 uM
Sequence of Kappa-type opioid receptor (Homo sapiens) (P41145 whole entry): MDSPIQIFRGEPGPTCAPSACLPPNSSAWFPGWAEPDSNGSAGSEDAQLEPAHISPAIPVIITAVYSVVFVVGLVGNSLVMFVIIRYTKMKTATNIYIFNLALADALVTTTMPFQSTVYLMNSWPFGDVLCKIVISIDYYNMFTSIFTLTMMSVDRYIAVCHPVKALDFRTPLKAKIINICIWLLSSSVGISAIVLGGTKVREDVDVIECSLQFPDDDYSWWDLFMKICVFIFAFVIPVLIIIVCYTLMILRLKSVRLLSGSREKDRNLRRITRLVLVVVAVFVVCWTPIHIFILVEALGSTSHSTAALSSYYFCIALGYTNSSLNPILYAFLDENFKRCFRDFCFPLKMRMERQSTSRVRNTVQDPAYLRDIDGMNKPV

[9] = target: D(1B) dopamine receptor (Homo sapiens) (UniProt P21918); conditions: Compound concentration 10.0 uM
[10] = target: Beta-3 adrenergic receptor (Homo sapiens) (UniProt P13945); conditions: Compound concentration 10.0 uM
Sequence of Beta-3 adrenergic receptor (Homo sapiens) (P13945 whole entry, looked up): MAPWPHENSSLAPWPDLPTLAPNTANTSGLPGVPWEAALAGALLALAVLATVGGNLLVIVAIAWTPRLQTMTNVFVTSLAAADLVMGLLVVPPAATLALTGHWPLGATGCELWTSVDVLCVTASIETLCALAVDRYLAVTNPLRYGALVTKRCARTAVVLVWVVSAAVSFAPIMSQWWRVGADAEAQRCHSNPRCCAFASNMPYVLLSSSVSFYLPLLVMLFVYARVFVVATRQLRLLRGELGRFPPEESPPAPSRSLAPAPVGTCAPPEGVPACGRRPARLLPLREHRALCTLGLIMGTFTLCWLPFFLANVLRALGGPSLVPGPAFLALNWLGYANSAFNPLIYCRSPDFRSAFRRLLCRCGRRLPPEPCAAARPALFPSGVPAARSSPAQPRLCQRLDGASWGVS

[11] = target: 5-hydroxytryptamine receptor 6 (Homo sapiens) (UniProt P50406); conditions: Compound concentration 10.0 uM
[12] = target: Muscarinic acetylcholine receptor M2 (Homo sapiens) (UniProt P08172); conditions: Compound concentration 10.0 uM
[13] = target: T1, Sigma intracellular receptor 2; assay: GPCRScan assay: inhibition of Sigma 2; set-up: radioligand conc. used [nm] 5.0, parental cells HEKT
[14] = target: Sodium-dependent serotonin transporter (Homo sapiens) (UniProt P31645); conditions: Compound concentration 10.0 uM
[15] = target: Mu-type opioid receptor (Homo sapiens) (UniProt P35372); conditions: Compound concentration 10.0 uM
[16] = target: Alpha-1B adrenergic receptor (Homo sapiens) (UniProt P35368); conditions: Compound concentration 10.0 uM
[17] = target: Delta-type opioid receptor (Homo sapiens) (UniProt P41143); conditions: Compound concentration 10.0 uM
[18] = target: Sodium-dependent noradrenaline transporter (Homo sapiens) (UniProt P23975); conditions: Compound concentration 10.0 uM
[19] = target: Alpha-2B adrenergic receptor (Homo sapiens) (UniProt P18089); conditions: Compound concentration 10.0 uM
[20] = target: Beta-1 adrenergic receptor (Homo sapiens) (UniProt P08588); conditions: Compound concentration 10.0 uM
Sequence of Beta-1 adrenergic receptor (Homo sapiens) (P08588 whole entry, looked up): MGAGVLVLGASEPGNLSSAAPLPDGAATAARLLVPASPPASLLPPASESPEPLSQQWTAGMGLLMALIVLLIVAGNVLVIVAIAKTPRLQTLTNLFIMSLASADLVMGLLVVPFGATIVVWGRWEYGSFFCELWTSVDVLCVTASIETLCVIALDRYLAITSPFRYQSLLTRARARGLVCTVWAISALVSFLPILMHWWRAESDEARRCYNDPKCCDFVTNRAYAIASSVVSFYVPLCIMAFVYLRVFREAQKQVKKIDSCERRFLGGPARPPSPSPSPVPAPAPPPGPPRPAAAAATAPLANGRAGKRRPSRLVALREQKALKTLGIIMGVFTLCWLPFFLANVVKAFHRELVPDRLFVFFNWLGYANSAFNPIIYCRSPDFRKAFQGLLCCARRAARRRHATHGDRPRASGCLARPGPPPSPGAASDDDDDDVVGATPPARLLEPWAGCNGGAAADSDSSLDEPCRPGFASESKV

Rattus norvegicus = species: Rattus norvegicus; conditions: Compound concentration 10.0 uM
[21] = target: Alpha-2C adrenergic receptor (Homo sapiens) (UniProt P18825); conditions: Compound concentration 10.0 uM
[22] = target: Histamine H4 receptor (Homo sapiens) (UniProt Q9H3N8); conditions: Compound concentration 10.0 uM
[23] = target: 5-hydroxytryptamine receptor 1B (Homo sapiens) (UniProt P28222); conditions: Compound concentration 10.0 uM
[24] = target: Muscarinic acetylcholine receptor M5 (Homo sapiens) (UniProt P08912); conditions: Compound concentration 10.0 uM
[25] = target: Alpha-1D adrenergic receptor (Homo sapiens) (UniProt P25100); conditions: Compound concentration 10.0 uM
Sequence of Alpha-1D adrenergic receptor (Homo sapiens) (P25100 whole entry): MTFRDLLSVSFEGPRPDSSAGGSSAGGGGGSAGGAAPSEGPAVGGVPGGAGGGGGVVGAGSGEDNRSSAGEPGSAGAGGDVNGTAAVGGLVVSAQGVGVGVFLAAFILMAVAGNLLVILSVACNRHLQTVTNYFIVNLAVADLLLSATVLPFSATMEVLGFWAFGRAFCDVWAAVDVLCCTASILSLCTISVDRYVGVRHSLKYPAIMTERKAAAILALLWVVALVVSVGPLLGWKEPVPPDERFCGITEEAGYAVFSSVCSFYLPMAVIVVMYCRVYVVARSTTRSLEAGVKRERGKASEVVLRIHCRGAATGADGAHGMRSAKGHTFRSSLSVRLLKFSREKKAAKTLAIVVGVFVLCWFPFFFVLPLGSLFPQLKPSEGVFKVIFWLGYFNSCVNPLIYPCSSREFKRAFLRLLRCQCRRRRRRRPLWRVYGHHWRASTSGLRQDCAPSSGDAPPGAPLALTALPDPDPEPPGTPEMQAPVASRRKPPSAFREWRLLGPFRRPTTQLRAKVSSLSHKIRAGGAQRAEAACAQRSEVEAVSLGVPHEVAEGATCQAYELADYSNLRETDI

[26] = target: 5-hydroxytryptamine receptor 2C (Homo sapiens) (UniProt P28335); conditions: Compound concentration 10.0 uM
[27] = target: D(4) dopamine receptor (Homo sapiens) (UniProt P21917); conditions: Compound concentration 10.0 uM
Sequence of D(4) dopamine receptor (Homo sapiens) (P21917 whole entry): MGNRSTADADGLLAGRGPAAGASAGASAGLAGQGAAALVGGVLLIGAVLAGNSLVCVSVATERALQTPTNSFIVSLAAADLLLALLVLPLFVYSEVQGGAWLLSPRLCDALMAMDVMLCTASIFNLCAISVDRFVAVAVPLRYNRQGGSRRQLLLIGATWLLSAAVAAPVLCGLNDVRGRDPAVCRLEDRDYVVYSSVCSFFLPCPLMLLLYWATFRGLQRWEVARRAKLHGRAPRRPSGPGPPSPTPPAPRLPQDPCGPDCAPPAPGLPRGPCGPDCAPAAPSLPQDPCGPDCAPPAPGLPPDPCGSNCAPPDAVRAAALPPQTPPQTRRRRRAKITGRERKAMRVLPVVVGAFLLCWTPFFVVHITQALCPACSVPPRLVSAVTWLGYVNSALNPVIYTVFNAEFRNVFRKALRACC

[28] = target: 5-hydroxytryptamine receptor 2B (Homo sapiens) (UniProt P41595); conditions: Compound concentration 10.0 uM
[29] = target: 5-hydroxytryptamine receptor 7 (Homo sapiens) (UniProt P34969); conditions: Compound concentration 10.0 uM
Sequence of 5-hydroxytryptamine receptor 7 (Homo sapiens) (P34969 whole entry): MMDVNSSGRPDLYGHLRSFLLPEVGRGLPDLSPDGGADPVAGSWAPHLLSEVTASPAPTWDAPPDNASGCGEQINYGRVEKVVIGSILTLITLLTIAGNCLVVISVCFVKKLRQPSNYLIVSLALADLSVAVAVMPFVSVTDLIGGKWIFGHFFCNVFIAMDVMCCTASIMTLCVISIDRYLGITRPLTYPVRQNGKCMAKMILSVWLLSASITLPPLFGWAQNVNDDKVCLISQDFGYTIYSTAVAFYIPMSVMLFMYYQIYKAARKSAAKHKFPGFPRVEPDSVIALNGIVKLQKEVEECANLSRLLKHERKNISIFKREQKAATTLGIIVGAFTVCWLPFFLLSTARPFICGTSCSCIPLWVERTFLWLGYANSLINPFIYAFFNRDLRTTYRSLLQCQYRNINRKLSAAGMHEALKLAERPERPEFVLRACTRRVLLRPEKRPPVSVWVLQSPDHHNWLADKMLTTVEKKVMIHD

[30] = target: 5-hydroxytryptamine receptor 5A (Homo sapiens) (UniProt P47898); conditions: Compound concentration 10.0 uM
[31] = target: Histamine H1 receptor (Homo sapiens) (UniProt P35367); conditions: Compound concentration 10.0 uM
[32] = target: Alpha-2A adrenergic receptor (Homo sapiens) (UniProt P08913); conditions: Compound concentration 10.0 uM
[33] = target: Muscarinic acetylcholine receptor M3 (Homo sapiens) (UniProt P20309); conditions: Compound concentration 10.0 uM
Sequence of Muscarinic acetylcholine receptor M3 (Homo sapiens) (P20309 whole entry, looked up): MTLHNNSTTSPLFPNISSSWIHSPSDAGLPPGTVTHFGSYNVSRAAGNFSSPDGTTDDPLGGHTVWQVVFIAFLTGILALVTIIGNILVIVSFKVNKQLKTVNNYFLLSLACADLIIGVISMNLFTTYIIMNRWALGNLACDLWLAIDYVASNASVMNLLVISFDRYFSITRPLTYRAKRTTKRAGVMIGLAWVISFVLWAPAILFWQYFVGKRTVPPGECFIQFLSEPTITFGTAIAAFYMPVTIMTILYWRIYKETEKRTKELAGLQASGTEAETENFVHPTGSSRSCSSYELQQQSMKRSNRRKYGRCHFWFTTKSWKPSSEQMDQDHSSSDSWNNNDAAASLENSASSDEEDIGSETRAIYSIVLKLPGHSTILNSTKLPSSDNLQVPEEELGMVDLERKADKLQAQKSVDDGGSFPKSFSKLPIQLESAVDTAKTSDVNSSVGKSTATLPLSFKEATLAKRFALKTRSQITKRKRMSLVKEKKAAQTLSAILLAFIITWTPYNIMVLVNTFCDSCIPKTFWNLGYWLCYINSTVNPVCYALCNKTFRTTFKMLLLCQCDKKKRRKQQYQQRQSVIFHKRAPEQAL

[34] = target: 5-hydroxytryptamine receptor 2A (Homo sapiens) (UniProt P28223); conditions: Compound concentration 10.0 uM
[35] = target: 5-hydroxytryptamine receptor 3A (Homo sapiens) (UniProt P46098); conditions: Compound concentration 10.0 uM

T1 sequence (Q5BJF2 whole entry): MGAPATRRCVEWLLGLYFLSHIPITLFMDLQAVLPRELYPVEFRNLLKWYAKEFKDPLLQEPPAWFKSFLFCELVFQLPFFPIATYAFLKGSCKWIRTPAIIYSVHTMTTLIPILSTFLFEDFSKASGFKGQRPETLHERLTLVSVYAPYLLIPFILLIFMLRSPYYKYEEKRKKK
Sequence of Muscarinic acetylcholine receptor M4 (Homo sapiens) (P08173 whole entry): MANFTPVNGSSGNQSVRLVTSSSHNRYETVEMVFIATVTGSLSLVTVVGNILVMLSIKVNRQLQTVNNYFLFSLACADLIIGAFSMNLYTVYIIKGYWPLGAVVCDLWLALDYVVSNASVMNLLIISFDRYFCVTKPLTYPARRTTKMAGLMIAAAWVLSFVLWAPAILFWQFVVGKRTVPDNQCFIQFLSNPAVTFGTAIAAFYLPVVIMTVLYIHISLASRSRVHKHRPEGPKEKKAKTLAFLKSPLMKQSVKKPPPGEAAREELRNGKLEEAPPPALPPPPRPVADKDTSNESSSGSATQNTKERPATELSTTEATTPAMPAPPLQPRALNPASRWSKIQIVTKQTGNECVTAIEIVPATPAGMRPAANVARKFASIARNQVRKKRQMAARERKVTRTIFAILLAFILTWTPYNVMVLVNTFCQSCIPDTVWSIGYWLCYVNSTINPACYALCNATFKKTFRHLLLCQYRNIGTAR

inhibition [1]: -6.74%
inhibition [2]: 64.9%
inhibition [3]: 10.3%
inhibition [4]: 17%
inhibition [5]: 0.45%
inhibition [6]: -2.65%
inhibition [7]: 5.35%
inhibition [8]: -0.09%
inhibition [9]: -2.37%
inhibition [10]: 17.6%
inhibition [11]: 9.36%
inhibition [12]: 16.2%
Ki ([13]; read-out: Ki): 5.25 µM
Ki ([13]; read-out: pKi (converted)): 4.47 µM
inhibition [14]: -0.39%
inhibition [15]: -1.35%
inhibition [16]: -4.23%
inhibition [17]: 1.01%
inhibition [18]: 0.15%
inhibition [19]: 13.3%
inhibition [20]: 23.9%
inhibition (Rattus norvegicus): -2.86%
inhibition [21]: 8.56%
inhibition [22]: -0.91%
inhibition [23]: -6.09%
inhibition [24]: 4.72%
inhibition [25]: -0.81%
inhibition [26]: -1.77%
inhibition [27]: -4.56%
inhibition [28]: 22.8%
inhibition [29]: 15.8%
inhibition [30]: -6.43%
inhibition [31]: 21.2%
inhibition [32]: 7.06%
inhibition [33]: -6.6%
inhibition [34]: -7.39%
inhibition [35]: 11.7%
SMILES: Cc1c(Oc2ccc(F)cc2)c(OC(C)C)nn1-c1ccc(C2CC2)cn1 [IPP/CNRS-A019]
